Results published in ChEMBL document CHEMBL5344475, “Indole-containing pharmaceuticals: targets, pharmacological activities, and SAR studies” (RSC Med Chem, 2024).

Columns and labels:
[1] = Volume of distribution at steady state in iv dosed human; conditions: in vivo, read-out: Vdss
[2] = Plasma protein binding in human assessed as unbound fraction; type: ADME, cell-free
[3] = Inhibition of tyrosine kinase (unknown origin); set-up: species or system Homo sapiens
[4] = Half life in human plasma; type: ADME, cell-free
[5] = biological target: T1, DNA polymerase alpha catalytic subunit (Homo sapiens, UniProt P09884); experiment: Inhibition of DNA polymerase alpha (unknown origin)
T1 sequence (P09884 whole entry): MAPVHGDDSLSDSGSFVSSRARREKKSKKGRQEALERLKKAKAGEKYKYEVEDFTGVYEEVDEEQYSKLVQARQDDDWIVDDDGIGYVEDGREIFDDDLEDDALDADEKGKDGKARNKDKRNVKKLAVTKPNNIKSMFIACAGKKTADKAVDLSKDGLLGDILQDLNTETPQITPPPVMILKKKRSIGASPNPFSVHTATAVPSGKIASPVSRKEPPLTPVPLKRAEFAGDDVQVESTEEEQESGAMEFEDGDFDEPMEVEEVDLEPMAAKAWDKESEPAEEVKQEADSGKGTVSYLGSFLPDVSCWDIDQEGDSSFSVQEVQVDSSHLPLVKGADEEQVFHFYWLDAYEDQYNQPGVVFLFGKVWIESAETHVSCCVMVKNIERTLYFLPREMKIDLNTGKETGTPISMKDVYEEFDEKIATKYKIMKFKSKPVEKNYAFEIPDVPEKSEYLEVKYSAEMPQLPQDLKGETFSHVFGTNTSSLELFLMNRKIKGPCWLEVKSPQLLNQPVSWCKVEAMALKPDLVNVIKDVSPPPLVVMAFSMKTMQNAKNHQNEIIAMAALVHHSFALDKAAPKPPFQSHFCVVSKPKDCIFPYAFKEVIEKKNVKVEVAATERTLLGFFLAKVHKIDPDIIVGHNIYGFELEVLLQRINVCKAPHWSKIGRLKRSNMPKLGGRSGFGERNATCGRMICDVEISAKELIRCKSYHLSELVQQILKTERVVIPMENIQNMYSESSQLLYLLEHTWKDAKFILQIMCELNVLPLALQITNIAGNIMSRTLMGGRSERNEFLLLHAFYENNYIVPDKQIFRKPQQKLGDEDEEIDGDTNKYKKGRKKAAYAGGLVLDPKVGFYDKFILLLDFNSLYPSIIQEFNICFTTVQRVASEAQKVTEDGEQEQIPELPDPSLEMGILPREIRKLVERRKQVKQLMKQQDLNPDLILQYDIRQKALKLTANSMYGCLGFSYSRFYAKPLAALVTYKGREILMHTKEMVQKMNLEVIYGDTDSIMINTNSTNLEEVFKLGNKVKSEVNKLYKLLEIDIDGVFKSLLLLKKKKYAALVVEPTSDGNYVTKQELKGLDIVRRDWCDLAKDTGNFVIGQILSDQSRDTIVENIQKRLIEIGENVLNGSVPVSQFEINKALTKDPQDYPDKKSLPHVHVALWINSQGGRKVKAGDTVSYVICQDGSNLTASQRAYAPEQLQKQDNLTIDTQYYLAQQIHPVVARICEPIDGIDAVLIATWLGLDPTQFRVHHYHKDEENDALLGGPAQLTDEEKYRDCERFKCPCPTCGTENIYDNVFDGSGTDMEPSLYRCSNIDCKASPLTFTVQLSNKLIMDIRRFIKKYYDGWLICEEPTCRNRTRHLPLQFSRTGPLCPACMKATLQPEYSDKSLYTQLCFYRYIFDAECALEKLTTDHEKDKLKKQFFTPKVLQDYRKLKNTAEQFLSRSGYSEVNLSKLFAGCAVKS

IC50 [5] [nM]	Compound	Vd [1] [L]	Fu [2] [%]	IC50 [3] [nM]	half-life [4] [h]
	C=CC(=O)Nc1cc(Nc2nccc(-c3cn(C)c4ccccc34)n2)c(OC)cc1N(C)CCN(C)C [OSIMERTINIB]	918	5	27.6	48
0.4	CNCc1ccc(-c2[nH]c3cc(F)cc4c3c2CCNC4=O)cc1 [RUCAPARIB]				17
